Results reported in patent US20260263638A1, “COMPOSITIONS AND METHODS TO IMPROVE RNA PROPERTIES USING BASE, PHOSPHODIESTER LINKAGE, SUGAR BACKBONE, AND CAP MODIFICATIONS” (The Broad Institute, Inc., priority 2023, published 2026).
Strand notation (5' to 3'): a small letter for the sugar, then the base; units joined by * are phosphorothioate-linked, units joined directly phosphodiester-linked; [ ] holds rarer units or linkages, { } end groups; capitals alone tell only the bases. {m7G-cap} = 7-methylguanosine cap added chemically (m7GDP-imidazolide) to the 5'-phosphate; e = 2'-O-(2-methoxyethyl) (MOE); [I] = hypoxanthine (inosine); d = 2'-deoxy (DNA); m = 2'-O-methyl; r = 2'-OH (RNA); {P} = phosphate; f = 2'-fluoro

How the values were obtained:
[1] = test system: HeLa cells; assay: Time-course dual luciferase assay of modified Firefly luciferase mRNA (Renilla control); type: cell-based; settings: for Effect of cap/5′ UTR modification on protein production / translation / Protein expression (Firefly luciferase luminescence normalized to Renilla, then to m7G-rG), fold increase: HeLa cells; for Effect of cap/5′ UTR modification on protein production / translation: Fluc reporter, result in words; for Protein expression (Firefly luciferase luminescence normalized to Renilla, then to m7G-rG), fold increase: 8-, 24-, 48-hours post-transfection, benchmark m7G-rG
Description: The modularity of this workflow enabled divergent construction and evaluation of mRNAs featuring four different types of cap and 5′ UTR modifications (FIG. 8A): (1) base identities within the 5′ UTR, including as locations beyond the third base (+3 position), (2) phosphodiester linkages within the 5′ UTR, (3) sugar backbone modifications within the 5′ UTR, and (4) cap modifications. The effects of all of these different types of modifications on protein translation were assayed using Firefly luciferase reporter at 8-, 24-, and 48-hours post-transfection.
HeLa cells [ATCC, CCL-2] were maintained in DMEM culture media [ThermoFisher Scientific, 119951] containing 10% FBS and 1% penicillin-streptomycin [ThermoFisher Scientific, 15070063] in a 37° C. incubator with 5% CO2 and passaged at a ratio of 1:10 every 3 days. On the day before mRNA transfection, HeLa cells were seeded at 90% confluence in individual wells on 24-well plates. The following day, 50 ng of Renilla luciferase (internal control) mRNA and 50 ng of modified Firefly luciferase mRNA were transfected using Lipofectamine MessengerMAX Transfection Reagent [ThermoFisher Scientific, LMRNA003] per manufacturer's protocols. Additional controls that contain only Renilla luciferase mRNA or lipofection reagent only were included. Three individual transfections were conducted for each condition. 6 hours after transfection, the transfection media was removed, and cells were trypsinized and reseeded to three white clear-bottom 96-well plates [Corning, 3610] in phenol-red-free media. At 8-, 24-, and 48-hours post-transfection, cell culture media was removed and cells were rinsed with DPBS. Cells were lysed and luciferase activity was measured using the Promega Dual Glo Luciferase Assay System [Promega, E2920]. Firefly luminescence/Renilla luminescence for each well was used as mRNA activity readout. In cases where Nluc and Fluc were used, the protocol was conducted similarly using the Nano-Glo Dual-Luciferase Reporter Assay System [Promega, N1610].

[2] = target: T1, eIF4E (Homo sapiens, UniProt P06730); assay: eIF4E electrophoretic mobility shift assay (EMSA); type: binding; settings: AF647-labeled capped oligos, read-out: eIF4E dissociation constant (Kd)
T1 construct: His; purchased Cayman Chemical Inc 25150
Description: eIF4E affinity to fluorophore-labeled capped RNA oligonucleotides was quantified through electrophoretic mobility shift assay (EMSA) (FIGS. 14D and 9A-9E).
Capped oligonucleotides were labeled on the 3′ end using AF647 labeled cytidine-5′-phosphate-3′-(6-aminohexyl) phosphate [Jena Bioscience, NU-1706-AF647] and T4 RNA ligase ligated AF647-labeled cytidine onto the capped oligos using manufacturer's protocols. Oligos were then incubated in the binding buffer (1 mM DTT, 50 mM KCl, 10 mM Tris-HCl (pH 7.6), Novex Hi-Density TBE Sample Buffer [Invitrogen, LC6678]) with varying eIF4E-His [Cayman Chemical Inc, 25150] concentrations prepared by sequential dilutions from the stock solution. The oligos and […] were incubated at 4° C. for 30 mins and characterized by EMSA with Novex TBE Gels, 4-20% [Invitrogen, EC6225BOX] at 4° C. AF647 labeled oligos were imaged with BioRad ChemiDoc MP Imaging System [12003154] and band intensities were quantified using ImageJ. For Kd calculation, the proportions of bound were plotted against eIF4E concentration using GraphPad Prism (Specific binding with Hill slope).

[3] = target: T2, human decapping enzyme 2 (hDcp2) (Homo sapiens, UniProt Q8IU60); assay: hDcp2 decapping assay; type: biochemical; settings: 23-nt capped oligos; result in words
T2 construct: purchased Enzymax LLC 86
Description: Next, the influence of modifications on decapping activity was examined. To this end, 23-nucleotide (23-nt) oligonucleotides with various modification patterns were subjected to decapping reactions and analyzed at different time intervals (FIGS. 14E and 9I).
500 ng of capped oligos were incubated in 75 μL decapping reaction buffer (10 mM Tris-HCl (pH 7.5), 100 mM NaCl, 2 mM MgCl2, 1 mM DTT, 2 mM MnCl2, 1:25 SUPERaseIn (v/v)) with 300 ng of hDcp2 [Enzymax LLC, 86] at 37° C. At indicated time points, 5 μL of reaction mixture was aliquoted out into 10 μL of denaturing gel-loading buffer [NEB, B0363S, with urea added to a final concentration of 5 M] and cooled to −20° C. until all time points were collected. The fractions were analyzed by PAGE using Novex 15% TBE-Urea gel [Invitrogen, EC6885BOX] by running at 100 V for 2 hours and stained by 1×SYBR Gold [ThermoFisher Scientific, S11494], and visualized using BioRad ChemiDoc MP Imaging System [12003154]. Band intensities were quantified using ImageJ.

T1 sequence (P06730 whole entry): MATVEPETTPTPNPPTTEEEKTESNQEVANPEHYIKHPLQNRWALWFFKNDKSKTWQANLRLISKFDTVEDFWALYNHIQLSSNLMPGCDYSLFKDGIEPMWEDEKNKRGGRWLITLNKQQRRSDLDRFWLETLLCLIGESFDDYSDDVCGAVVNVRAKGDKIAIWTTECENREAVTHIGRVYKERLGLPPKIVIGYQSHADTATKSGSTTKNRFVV

Substance	Effect of cap/5′ UTR modification on protein production / translation [1]	other results
construct 1: m7G cap; /5Phos/rArGrArGrArArUrArArArArA (SEQ ID NO: 2) (AGAGAAUAAAAA; m7G cap, 5' phosphate; modified_base 1 OTHER; 5'-phosphate modified nucleotide)	A>G~C~U	
construct 2: m7G cap; /5Phos/rUrGrArGrArArUrArArArArA (SEQ ID NO: 3) (UGAGAAUAAAAA; m7G cap, 5' phosphate; modified_base 1 OTHER; 5'-phosphate modified nucleotide)	A>G~C~U	
construct 3: m7G cap; /5Phos/rCrGrArGrArArUrArArArArA (SEQ ID NO: 4) (CGAGAAUAAAAA; m7G cap, 5' phosphate; modified_base 1 OTHER; 5'-phosphate modified nucleotide)	A>G~C~U	
construct 4: m7G cap; /5Phos/rIrGrArGrArArUrArArArArA (SEQ ID NO: 5) ({P}-r[I]rGrArGrArArUrArArArArA; m7G cap on the 5'-phosphate)	enhanced protein production	
construct 5: m7G cap; /5Phos//iN6Me-rA/rGrArGrArArUrArArArArA (SEQ ID NO: 6) (AGAGAAUAAAAA; m7G cap; 5' phosphate; N6-methyl-A; modified_base 1 OTHER; 5'-phosphate modified N6-methyladenosine)	enhanced protein production	
construct 8: m7G cap; /5Phos//i2FA/rGrArGrArArUrArArArArA (SEQ ID NO: 9) ({P}-fArGrArGrArArUrArArArArA; m7G cap on the 5'-phosphate)	hindered translation	
construct 9: m7G cap; /5Phos//ibetaL-rA/rGrArGrArArUrArArArArA (SEQ ID NO: 10) (AGAGAAUAAAAA; m7G cap; 5' phosphate; beta-L-A; modified_base 1 OTHER; 5'-phosphate modified L-adenosine)	negligible changes	
construct 10: m7G cap; /5Phos/ArGrArGrArArUrArArArArA (SEQ ID NO: 11) ({m7G-cap}-dArGrArGrArArUrArArArArA)	negligible changes	
construct 12: m7G cap; /5Phos//i2MOErA/rGrArGrArArUrArArArArA (SEQ ID NO: 13) ({m7G-cap}-eArGrArGrArArUrArArArArA)		Protein expression (Firefly luciferase luminescence normalized to Renilla, then to m7G-rG), fold increase [1]: 4.8 fold
construct 16: m7G cap; /5Phos//i2MOErA//i2MOErG//i2MOErA//i2MOErG//i2MOErA//i2MOErA/rUrArArArArA (SEQ ID NO: 17) ({P}-eAeGeAeGeAeArUrArArArArA; m7G cap on the 5'-phosphate)		Protein expression (Firefly luciferase luminescence normalized to Renilla, then to m7G-rG), fold increase [1]: 5.4 fold
construct 18: Bn7G cap; /5Phos/rArGrArGrArArUrArArArArA (SEQ ID NO: 19) (AGAGAAUAAAAA; Bn7G cap, 5' phosphate; modified_base 1 OTHER; 5'-phosphate modified nucleotide)	did not outperform m7G	
construct 19: ClBn7G cap; /5Phos/rArGrArGrArArUrArArArArA (SEQ ID NO: 20) (AGAGAAUAAAAA; ClBn7G cap, 5' phosphate; modified_base 1 OTHER; 5'-phosphate modified nucleotide)	did not outperform m7G	
construct 20: ClBnOEt7G cap; /5Phos/rArGrArGrArArUrArArArArA (SEQ ID NO: 21) (AGAGAAUAAAAA; ClBnOEt7G cap, 5' phosphate; modified_base 1 OTHER; 5'-phosphate modified nucleotide)	did not outperform m7G	
construct 21: LNAm7G cap; /5Phos/rArGrArGrArArUrArArArArA (SEQ ID NO: 22) ({P}-rArGrArGrArArUrArArArArA; LNA-modified m7G cap on the 5'-phosphate)		Protein expression (Firefly luciferase luminescence normalized to Renilla, then to m7G-rG), fold increase [1]: 4.5 fold
construct 24: LNAm7G cap; /5Phos/mAmGmAmGmAmArUrArArArArA (SEQ ID NO: 25) ({P}-mAmGmAmGmAmArUrArArArArA; LNA-modified m7G cap on the 5'-phosphate)		Protein expression (Firefly luciferase luminescence normalized to Renilla, then to m7G-rG), fold increase [1]: 7.5 fold; Kd [2]: 1570 ± 116 nM
construct 26: m7G-capped azide oligo /5Phos/rArGrArGrArUrArA/3AzideN/ clicked to uncapped rArArA/i5OCTdU/rArArArArArA (SEQ ID NO: 33) (AAATAAAAAA; m7G-capped azide oligo clicked to internal octyne-dU; modified_base 4 OTHER; 5-Octadiynyl modified uracil; misc_feature 1..3 RNA; misc_feature 4 DNA; misc_feature 5..10 RNA)		Translation of branched / dual-capped Fluc mRNA (bioluminometry), result in words ([1]; topological screening: OU handle position, branching point, branch length, PS): effectively induce mRNA translation
construct 28: m7G cap; OU handle only; /5Phos/rArGrArUrArArA/i5OCTdU/rArArArArArA (SEQ ID NO: 38) (AGATAAATAAAAAA; m7G cap; internal octyne-dU handle; modified_base 1 OTHER; 5'-phosphate modified nucleotide; modified_base 8 OTHER; 5-Octadiynyl modified uracil; misc_feature 1..7 RNA; misc_feature 8 DNA; misc_feature 9..14 RNA)		Kd [2]: 2210 nM
construct 42: dual LNAm7G-capped; /5Phos/rArGrArGrArUrArA/3AzideN/ clicked to /5Phos/rArGrArUrArArA/i5OCTdU/rArArArArArA (SEQ ID NO: 120) (AGATAAATAAAAAA; dual LNA-m7G caps via click branch; modified_base 1 OTHER; 5'-phosphate modified nucleotide; modified_base 8 OTHER; 5-Octadiynyl modified uracil; misc_feature 1..7 RNA; misc_feature 8 DNA; misc_feature 9..14 RNA)		Kd [2]: 1280 nM
construct 43: m7G cap; /5Phos/mAmGmAmGmAmAmUmAmAmAmAmAmAmGmGmGmAmAmUmAmAmAmC (SEQ ID NO: 26) ({P}-mAmGmAmGmAmAmUmAmAmAmAmAmAmGmGmGmAmAmUmAmAmAmC; m7G cap on the 5'-phosphate)		Susceptibility / resistance to hDcp2 decapping [3]: increased decapping resistance to a similar level as LNA modification
